From patent US20240269287A1, “MICROBUBBLE-ASSISTED ULTRASOUND-GUIDED THERAPY” (THE BOARD OF REGENTS OF THE UNIVERSITY OF TEXAS SYSTEM, priority 2021, published 2024)

Experiments:
[1] = system: BMDMs; assay type: cell-based, mouse
Method: Mouse bone marrow-derived macrophages (BMDMs) were isolated from the hind leg femur bone marrow of C57BL/6J mice and were cultured or activated with macrophage colony-stimulating factor (M-CSF, 50 ng ml-1) according to standardized procedures. The purity of the induced cells was assessed by flow cytometry for CD45+CD11b+ cells.
One day before treatment, cells were plated at 400,000 cells/well in a 12 well plate. […] […] Plates were flipped upside down and left to incubate for 10 min at 37° C. Cells were diluted to 2.5 mL with PFB-saturated RPMI, placed on top of a water bath set to 37° C., then sonoporated at 1 MHz, with 1 W/cm^2 power density, 20% duty cycle (DC) for 60 seconds (SONITRON® GTS, 15 mm diameter). Fluorescence microscopy images were taken at different time points (0, 3, 6, 12, 24, and 48 h).

[2] = system: STING pathway in BMDMs; experiment: STING signaling after treatment (qRT-PCR, ELISA, western blot, immunostaining); assay type: cell-based, mouse
Method: Mouse BMDMs and human THP-1 cells were cultured as described above.

[3] = system: EO771 orthotopic breast tumors; experiment: Tumor growth and survival; assay type: in vivo, mouse; settings: wild type mice, three intratumoral treatments every other day, 100 μg cGAMP
Method: Orthotopic mammary fat pad tumors were established as in Example 9. […] The mice were injected intratumorally with 20 μL of solution infused at 1 μL/second using a syringe pump. […] The mice were treated every other day for a total of three treatments (days 13, 15, and 17). US, where part of the treatment group, was applied by using acoustic coupling gel and a 1-MHz plane wave transducer operating at 4 W/cm^2 for 60 seconds and a 50% duty cycle given to opposite sides of the tumor for a total treatment time of 120 seconds. At 18 days post tumor inoculation treated mice were sacrificed.
Tumor sizes were measured every two days using digital calipers, and tumor volume was calculated according to an ellipsoid formula as 0.5×length×width^2. Mice were sacrificed if any tumor ulceration was observed or if tumors reached 2000 mm^3 in volume. The final tumor volume comparison between the MUSIC and control groups was done when the first mice from a control group was sacrificed. […] Statistical analysis was done using an unpaired t-test for tumor sizes and Log-rank test for survival curves.

Compound: 2′-O-(6-[DY547]-aminohexylcarbamoyl)-cyclic diguanosine monophosphate [diGMP only]
- uptake of diGMP (fluorescence microscopy) [1]: weak uptake

Compound: Nc1nc2c(ncn2[C@@H]2O[C@@H]3COP(=O)(O)O[C@H]4[C@@H](O)[C@H](n5cnc6c(N)ncnc65)O[C@@H]4COP(=O)(O)O[C@@H]2[C@@H]3O)c(=O)[nH]1 [cGAMP, cyclic guanosine monophosphate-adenosine monophosphate]
- STING or IRF-3 phosphorylation (western blot) [2]: no STING or IRF-3 phosphorylation
- mice with complete tumor remission / complete response [3]: 2 out of 10
